The target of the test is T1, Aurora kinase A (Homo sapiens, UniProt O14965).
T1 sequence (O14965 whole entry): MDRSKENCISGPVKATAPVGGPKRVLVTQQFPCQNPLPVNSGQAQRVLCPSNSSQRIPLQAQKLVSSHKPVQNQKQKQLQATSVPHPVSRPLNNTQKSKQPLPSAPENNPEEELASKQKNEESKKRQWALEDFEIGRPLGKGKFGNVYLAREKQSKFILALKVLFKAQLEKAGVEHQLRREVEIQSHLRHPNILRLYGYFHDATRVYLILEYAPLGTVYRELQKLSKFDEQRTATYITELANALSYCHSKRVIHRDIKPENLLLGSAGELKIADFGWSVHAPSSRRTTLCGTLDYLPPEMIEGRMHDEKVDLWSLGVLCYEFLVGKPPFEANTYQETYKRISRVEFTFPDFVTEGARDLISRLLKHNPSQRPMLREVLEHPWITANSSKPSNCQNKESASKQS
As to the kind of experiment: Aurora Kinase SPA Assay. On the procedure:
The biochemical activity of compounds was determined by incubation with Aurora A and substrates in the presence ATP/[gamma-33P] ATP. After incubation, the reaction was stopped and the phosphorylated substrate was separated from nonincorporated radioactive ATP using SPA beads (Amersham Pharmacia Biotech), counted using TopCount (Packard) to measure substrate-incorporated phosphate.

Molecules are shown by their SMILES. Bounds are passed on as bounds.

With `Nc1ccc(Nc2ncc(Br)s2)cc1` [1-N-(5-bromo-1,3-thiazol-2-yl)benzene-1,4-diamine], for the setting “pH 7, 22 °C”, the midpoint of inhibition, the IC50, lay at 0.6 µM.

For `CC(=O)c1ccc(Nc2ncc(Br)s2)cc1` [1-{4-[(5-bromo-1,3-thiazol-2-yl)amino]phenyl}ethan-1-one], half-maximal inhibition (pH 7, 22 °C) (IC50) was put at 1.7 µM.

In the case of `CCN1CCN(Cc2ccc(Nc3ncc(C#N)s3)nc2)CC1` [2-({5-[(4-ethylpiperazin-1-yl)methyl]pyridin-2-yl}amino)-1,3-thiazole-5-carbonitrile], the IC50 – broadly, the concentration needed to halve the response being measured – was 4.4 µM. That is a single-digit micromolar value.

`CN1CCN(Cc2ccc(Nc3ncc(C#N)s3)nc2)CC1` [2-({5-[(4-methylpiperazin-1-yl)methyl]pyridin-2-yl}amino)-1,3-thiazole-5-carbonitrile] yielded an IC50 of 3.8 µM.

`N#Cc1cnc(Nc2ccc(CN3CCN(CCO)CC3)cn2)s1` [2-[(5-{[4-(2-hydroxyethyl)piperazin-1-yl]methyl}pyridin-2-yl)amino]-1,3-thiazole-5-carbonitrile] yielded an IC50 of 5.4 µM.

Turning to `N#Cc1cnc(Nc2ccc(CN3CCOCC3)cn2)s1` [2-{[5-(morpholin-4-ylmethyl)pyridin-2-yl]amino}-1,3-thiazole-5-carbonitrile], the IC50 amounted to 1.4 µM.

On to `O=C(Nc1ccccc1)Nc1ncc(Br)s1` [3-(5-bromo-1,3-thiazol-2-yl)-1-phenylurea], for which the IC50 is over 10 µM.

Regarding `COCCNC(=O)c1cccc(Nc2ncc(Br)s2)c1` [3-[(5-bromo-1,3-thiazol-2-yl)amino]-N-(2-methoxyethyl)benzamide], the IC50 worked out at 1.22 µM.

In the case of `CNC(=O)c1cccc(Nc2ncc(Br)s2)c1` [3-[(5-bromo-1,3-thiazol-2-yl)amino]-N-methylbenzamide], the IC50 turned out to be 0.74 µM.

The molecule `O=C(O)c1cccc(Nc2ncc(Br)s2)c1` [3-[(5-bromo-1,3-thiazol-2-yl)amino]benzoic acid] gave a concentration for half-maximal inhibition (IC50) of 0.44 µM.

In turn, `N#Cc1cccc(Nc2ncc(Br)s2)c1` [3-[(5-bromo-1,3-thiazol-2-yl)amino]benzonitrile] showed an IC50 of 1.5 µM.

The molecule `CNC(=O)N1CCN(Cc2ccc(Nc3ncc(C#N)s3)nc2)CC1` [4-({6-[(5-cyano-1,3-thiazol-2-yl)amino]pyridin-3-yl}methyl)-N-methylpiperazine-1-carboxamide] yielded an IC50 of 0.88 µM.

As to `COCC(C)NC(=O)c1ccc(Nc2ncc(Br)s2)cc1` (centres undefined) [4-[(5-bromo-1,3-thiazol-2-yl)amino]-N-(1-methoxypropan-2-yl)benzamide], the IC50 (pH 7, 22 °C) turned out to be 0.33 µM.

The molecule `O=C(NCCO)c1ccc(Nc2ncc(Br)s2)cc1` [4-[(5-bromo-1,3-thiazol-2-yl)amino]-N-(2-hydroxyethyl)benzamide] yielded an IC50 (pH 7, 22 °C) of 1.48 µM. This IC50 lies about 4.5-fold higher than the previous one.

`COCCN(C)C(=O)c1ccc(Nc2ncc(Br)s2)cc1` [4-[(5-bromo-1,3-thiazol-2-yl)amino]-N-(2-methoxyethyl)-N-methylbenzamide] came in with an IC50 (pH 7, 22 °C) of 0.98 µM.

Regarding `COCCNC(=O)c1ccc(Nc2ncc(Br)s2)cc1` [4-[(5-bromo-1,3-thiazol-2-yl)amino]-N-(2-methoxyethyl)benzamide], it took 0.097 µM to reach half-maximal inhibition (pH 7, 22 °C) (IC50).

The molecule `CCN(CC)CCNC(=O)c1ccc(Nc2ncc(Br)s2)cc1` [4-[(5-bromo-1,3-thiazol-2-yl)amino]-N-[2-(diethylamino)ethyl]benzamide] showed an IC50 of 4.52 µM.

Turning to `CN(C)CCNC(=O)c1ccc(Nc2ncc(Br)s2)cc1` [4-[(5-bromo-1,3-thiazol-2-yl)amino]-N-[2-(dimethylamino)ethyl]benzamide], the IC50 was 5.25 µM.

In turn, `O=C(NCCN1CCOCC1)c1ccc(Nc2ncc(Br)s2)cc1` [4-[(5-bromo-1,3-thiazol-2-yl)amino]-N-[2-(morpholin-4-yl)ethyl]benzamide] showed an IC50 of 2.3 µM.

Molecule `O=C(NCCN1CCCC1)c1ccc(Nc2ncc(Br)s2)cc1` [4-[(5-bromo-1,3-thiazol-2-yl)amino]-N-[2-(pyrrolidin-1-yl)ethyl]benzamide] gave an IC50 of 5.32 µM.

In the case of `N#Cc1ccc(Nc2ncc(Br)s2)cc1` [4-[(5-bromo-1,3-thiazol-2-yl)amino]benzonitrile], the IC50 (pH 7, 22 °C) turned out to be 2.1 µM.

The molecule `Oc1ccc(Nc2ncc(Br)s2)cc1` [4-[(5-bromo-1,3-thiazol-2-yl)amino]phenol] came in with an IC50 (pH 7, 22 °C) of 0.51 µM.

`Fc1ccc(Nc2nc(Br)cs2)cc1` [4-bromo-N-(4-fluorophenyl)-1,3-thiazol-2-amine] returned an IC50 (pH 7, 22 °C) of over 10 µM.

Consider `Nc1ncc(Br)s1` [5-bromo-1,3-thiazol-2-amine], for which the IC50 was over 10 µM.

`Fc1ccc(Nc2ncc(Br)s2)c(F)c1` [5-bromo-N-(2,4-difluorophenyl)-1,3-thiazol-2-amine]: the IC50 is over 10 µM.

Molecule `Fc1ccc(F)c(Nc2ncc(Br)s2)c1` [5-bromo-N-(2,5-difluorophenyl)-1,3-thiazol-2-amine] displayed an IC50 of over 10 µM.

As for `Fc1ccccc1Nc1ncc(Br)s1` [5-bromo-N-(2-fluorophenyl)-1,3-thiazol-2-amine], half-maximal inhibition (IC50) required 5.5 µM.

Regarding `COc1ccccc1Nc1ncc(Br)s1` [5-bromo-N-(2-methoxyphenyl)-1,3-thiazol-2-amine], the IC50 was determined as 2.7 µM.

Take `Cc1ccccc1Nc1ncc(Br)s1` [5-bromo-N-(2-methylphenyl)-1,3-thiazol-2-amine]: half-maximal inhibition (IC50) required 3 µM.

For the molecule `Brc1cnc(NCCc2ccccc2)s1` [5-bromo-N-(2-phenylethyl)-1,3-thiazol-2-amine], the IC50 was over 10 µM.

`Clc1ccc(Nc2ncc(Br)s2)cc1Cl` [5-bromo-N-(3,4-dichlorophenyl)-1,3-thiazol-2-amine]: the IC50 is over 10 µM.

With `Clc1cc(Cl)cc(Nc2ncc(Br)s2)c1` [5-bromo-N-(3,5-dichlorophenyl)-1,3-thiazol-2-amine], the IC50 was over 10 µM.

As to `Cc1cc(C)cc(Nc2ncc(Br)s2)c1` [5-bromo-N-(3,5-dimethylphenyl)-1,3-thiazol-2-amine], the IC50 is over 10 µM.

The molecule `Fc1cccc(Nc2ncc(Br)s2)c1` [5-bromo-N-(3-fluorophenyl)-1,3-thiazol-2-amine] yielded an IC50 of 9.3 µM.

In turn, `COc1cccc(Nc2ncc(Br)s2)c1` [5-bromo-N-(3-methoxyphenyl)-1,3-thiazol-2-amine] yielded an IC50 of 0.9 µM.

As to `Cc1cccc(Nc2ncc(Br)s2)c1` [5-bromo-N-(3-methylphenyl)-1,3-thiazol-2-amine], half-maximal inhibition (IC50) required 1.1 µM.

As for `Brc1ccc(Nc2ncc(Br)s2)cc1` [5-bromo-N-(4-bromophenyl)-1,3-thiazol-2-amine], the IC50 (pH 7, 22 °C) came to 2.9 µM. In other words, the single-digit micromolar range.

Consider `Clc1ccc(Nc2ncc(Br)s2)cc1` [5-bromo-N-(4-chlorophenyl)-1,3-thiazol-2-amine], for which the IC50 (pH 7, 22 °C) is 3 µM.

Where the note is “pH 7, 22 °C”, `CN(c1ccc(F)cc1)c1ncc(Br)s1` [5-bromo-N-(4-fluorophenyl)-N-methyl-1,3-thiazol-2-amine] had an IC50 of over 10 µM.

In the case of `Brc1cnc(Nc2ccc(I)cc2)s1` [5-bromo-N-(4-iodophenyl)-1,3-thiazol-2-amine], the IC50 (pH 7, 22 °C) was over 10 µM.

As for `COc1ccc(Nc2ncc(Br)s2)cc1` [5-bromo-N-(4-methoxyphenyl)-1,3-thiazol-2-amine], the midpoint of inhibition (pH 7, 22 °C), the IC50, lay at 1.7 µM.

`Cc1ccc(Nc2ncc(Br)s2)cc1` [5-bromo-N-(4-methylphenyl)-1,3-thiazol-2-amine]: the IC50 (pH 7, 22 °C) turned out to be 2.84 µM.

For `O=[N+]([O-])c1ccc(Nc2ncc(Br)s2)cc1` [5-bromo-N-(4-nitrophenyl)-1,3-thiazol-2-amine], where the note is “pH 7, 22 °C”, the IC50 was 13 µM. Against the preceding molecule, the IC50 is about 4.6-fold higher.

`Brc1cnc(Nc2ccc(Oc3ccccc3)cc2)s1` [5-bromo-N-(4-phenoxyphenyl)-1,3-thiazol-2-amine]: half-maximal inhibition (pH 7, 22 °C) (IC50) required 1.4 µM.
